# Assay results as given in US20210323913A1, “SIGMA RECEPTOR BINDERS” (BOARD OF REGENTS, THE UNIVERSITY OF TEXAS SYSTEM, priority 2016, published 2021).
# Where two headings read alike, the source gives them in different places.
# Columns and labels:
# sigma 1 receptor = sigma 1 receptor (Homo sapiens, UniProt Q99720); test: Sigma 1 receptor radioligand competition binding
# sigma 2 receptor = sigma 2 receptor (Homo sapiens, UniProt Q5BJF2); test: Sigma 2 receptor radioligand competition binding; conditions: for Ki ratio Sig1R/Sig2R: ratio of Sig1R Ki to Sig2R Ki
# H1 = H1 (Homo sapiens, UniProt P35367); test: Radioligand competition binding, H1; conditions: Table 5; Cheng-Prusoff from best fit IC50
# 5-HT1A = target: T1, 5-HT1A (Homo sapiens, UniProt P08908); test: Radioligand competition binding, 5-HT1A; conditions: Table 5; Cheng-Prusoff from best fit IC50
# T1 sequence (P08908 1-422): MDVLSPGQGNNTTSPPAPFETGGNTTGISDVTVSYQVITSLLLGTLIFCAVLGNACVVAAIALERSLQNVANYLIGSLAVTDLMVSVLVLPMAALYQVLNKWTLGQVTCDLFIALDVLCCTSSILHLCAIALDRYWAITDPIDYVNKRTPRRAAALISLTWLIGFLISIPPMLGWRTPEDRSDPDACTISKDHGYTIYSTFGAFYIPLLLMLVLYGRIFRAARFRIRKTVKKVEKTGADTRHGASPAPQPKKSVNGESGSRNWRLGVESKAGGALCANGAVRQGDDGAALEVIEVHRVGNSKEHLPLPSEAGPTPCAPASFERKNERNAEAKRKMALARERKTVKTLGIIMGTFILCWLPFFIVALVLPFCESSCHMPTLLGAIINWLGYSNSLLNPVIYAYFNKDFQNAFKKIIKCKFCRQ
# 5-HT1B = 5-HT1B (Homo sapiens, UniProt P28222); test: Radioligand competition binding, 5-HT1B; conditions: Table 5; Cheng-Prusoff from best fit IC50
# 5-HT1D = 5-HT1D (Homo sapiens, UniProt P28221); test: Radioligand competition binding, 5-HT1D; conditions: Table 5; Cheng-Prusoff from best fit IC50
# 5-HT2A = 5-HT2A (Homo sapiens, UniProt P28223); test: Radioligand competition binding, 5-HT2A; conditions: Table 5; Cheng-Prusoff from best fit IC50
# 5-HT2B = 5-HT2B (Homo sapiens, UniProt P41595); test: Radioligand competition binding, 5-HT2B; conditions: Table 5; Cheng-Prusoff from best fit IC50
# 5-HT6 = 5-HT6 (Homo sapiens, UniProt P50406); test: Radioligand competition binding, 5-HT6; conditions: Table 5; Cheng-Prusoff from best fit IC50
# 5-HT7 = 5-HT7 (Homo sapiens, UniProt P34969); test: Radioligand competition binding, 5-HT7; conditions: Table 5; Cheng-Prusoff from best fit IC50
# Alpha2A = target: T2, Alpha2A (Homo sapiens, UniProt P08913); test: Radioligand competition binding, Alpha2A; conditions: Table 5; Cheng-Prusoff from best fit IC50
# T2 sequence (P08913 1-465): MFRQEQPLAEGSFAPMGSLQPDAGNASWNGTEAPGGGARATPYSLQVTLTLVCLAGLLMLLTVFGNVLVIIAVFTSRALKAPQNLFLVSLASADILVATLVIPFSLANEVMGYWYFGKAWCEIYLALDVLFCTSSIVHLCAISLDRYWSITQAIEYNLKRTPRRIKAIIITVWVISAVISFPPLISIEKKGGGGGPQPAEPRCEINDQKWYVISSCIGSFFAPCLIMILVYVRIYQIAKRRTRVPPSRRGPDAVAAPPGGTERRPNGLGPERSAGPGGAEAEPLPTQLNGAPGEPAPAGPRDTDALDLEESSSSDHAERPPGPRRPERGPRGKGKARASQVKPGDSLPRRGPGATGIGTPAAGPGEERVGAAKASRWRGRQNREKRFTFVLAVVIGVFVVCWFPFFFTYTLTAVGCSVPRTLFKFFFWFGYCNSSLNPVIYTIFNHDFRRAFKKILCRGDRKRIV
# D1 = D1 (Homo sapiens, UniProt P21728); test: Radioligand competition binding, D1; conditions: Table 5; Cheng-Prusoff from best fit IC50; some values marked (AVE)
# D2 = D2 (Homo sapiens, UniProt P14416); test: Radioligand competition binding, D2; conditions: Table 5; Cheng-Prusoff from best fit IC50
# D3 = D3 (Homo sapiens, UniProt P35462); test: Radioligand competition binding, D3; conditions: Table 5; Cheng-Prusoff from best fit IC50; one value marked (AVE)
# D4 = target: T3, D4 (Homo sapiens, UniProt P21917); test: Radioligand competition binding, D4; conditions: Table 5; Cheng-Prusoff from best fit IC50
# T3 sequence (P21917 1-419): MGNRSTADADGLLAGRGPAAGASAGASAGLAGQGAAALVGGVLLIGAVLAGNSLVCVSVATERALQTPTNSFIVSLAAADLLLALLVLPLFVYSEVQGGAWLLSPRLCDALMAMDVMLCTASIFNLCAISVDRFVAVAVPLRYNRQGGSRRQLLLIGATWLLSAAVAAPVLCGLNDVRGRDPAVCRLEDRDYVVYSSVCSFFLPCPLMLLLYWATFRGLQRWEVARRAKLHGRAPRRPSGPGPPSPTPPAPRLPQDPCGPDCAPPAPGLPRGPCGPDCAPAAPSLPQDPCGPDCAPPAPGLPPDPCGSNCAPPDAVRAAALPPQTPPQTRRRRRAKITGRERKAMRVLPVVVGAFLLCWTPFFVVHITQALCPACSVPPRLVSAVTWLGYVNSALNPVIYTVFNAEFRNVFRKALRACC
# D5 = D5 (Homo sapiens, UniProt P21918); test: Radioligand competition binding, D5; conditions: Table 5; Cheng-Prusoff from best fit IC50
# DAT = DAT (Homo sapiens, UniProt Q01959); test: Radioligand competition binding, DAT; conditions: Table 5; Cheng-Prusoff from best fit IC50
# H2 = H2 (Homo sapiens, UniProt P25021); test: Radioligand competition binding, H2; conditions: Table 5; Cheng-Prusoff from best fit IC50
# [1] = Table 1, 7-piperazinyl-tetrahydronaphthalene analogs, read-out: Ki (nM) Sig1R
# [2] = Table 1, 7-piperazinyl-tetrahydronaphthalene analogs, read-out: Ki (nM) Sig2R
# [3] = Table 5, Cheng-Prusoff from best fit IC50, read-out: Ki Sigma 2
# [4] = Table 2, piperazinyl-tetrahydronaphthalene analogs, read-out: Ki (nM) Sig1R
# [5] = Table 2, piperazinyl-tetrahydronaphthalene analogs, read-out: Ki (nM) Sig2R
# sigma 1 receptor, sequence (Q99720 whole entry, species assumed): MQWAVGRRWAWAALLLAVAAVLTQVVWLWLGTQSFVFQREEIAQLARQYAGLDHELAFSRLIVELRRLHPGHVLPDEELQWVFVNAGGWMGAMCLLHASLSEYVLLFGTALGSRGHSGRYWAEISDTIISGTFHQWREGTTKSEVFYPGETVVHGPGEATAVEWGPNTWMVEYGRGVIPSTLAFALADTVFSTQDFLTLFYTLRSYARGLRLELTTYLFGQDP
# sigma 2 receptor, sequence (Q5BJF2 whole entry, species assumed): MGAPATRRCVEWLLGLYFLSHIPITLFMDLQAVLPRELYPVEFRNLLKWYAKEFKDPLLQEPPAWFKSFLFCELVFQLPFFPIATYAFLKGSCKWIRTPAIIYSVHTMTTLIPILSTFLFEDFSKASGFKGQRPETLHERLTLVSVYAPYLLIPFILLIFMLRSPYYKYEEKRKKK
# 5-HT1B, sequence (P28222 whole entry, species assumed): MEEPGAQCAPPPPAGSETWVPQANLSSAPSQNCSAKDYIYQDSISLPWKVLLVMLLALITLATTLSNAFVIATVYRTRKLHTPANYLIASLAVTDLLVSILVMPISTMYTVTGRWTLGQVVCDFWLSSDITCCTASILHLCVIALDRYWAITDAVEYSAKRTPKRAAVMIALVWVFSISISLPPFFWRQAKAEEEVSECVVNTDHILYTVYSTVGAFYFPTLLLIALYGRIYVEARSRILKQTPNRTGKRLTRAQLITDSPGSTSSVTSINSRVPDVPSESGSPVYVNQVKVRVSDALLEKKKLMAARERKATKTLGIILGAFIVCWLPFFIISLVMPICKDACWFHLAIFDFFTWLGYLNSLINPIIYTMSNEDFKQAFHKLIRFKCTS
# 5-HT2B, sequence (P41595 whole entry, species assumed): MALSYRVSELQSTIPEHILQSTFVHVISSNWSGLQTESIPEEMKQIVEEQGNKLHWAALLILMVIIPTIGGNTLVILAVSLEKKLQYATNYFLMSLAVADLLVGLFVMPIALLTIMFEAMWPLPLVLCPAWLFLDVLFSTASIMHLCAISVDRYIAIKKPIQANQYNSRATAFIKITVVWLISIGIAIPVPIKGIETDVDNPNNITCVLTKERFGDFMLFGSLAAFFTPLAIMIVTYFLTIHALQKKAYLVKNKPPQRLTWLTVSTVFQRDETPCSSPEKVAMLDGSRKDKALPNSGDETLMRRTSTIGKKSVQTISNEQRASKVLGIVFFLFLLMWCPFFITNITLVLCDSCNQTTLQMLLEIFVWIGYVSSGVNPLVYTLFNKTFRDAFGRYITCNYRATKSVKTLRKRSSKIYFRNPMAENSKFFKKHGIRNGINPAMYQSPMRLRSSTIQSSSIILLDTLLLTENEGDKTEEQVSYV
# 5-HT7, sequence (P34969 whole entry, species assumed): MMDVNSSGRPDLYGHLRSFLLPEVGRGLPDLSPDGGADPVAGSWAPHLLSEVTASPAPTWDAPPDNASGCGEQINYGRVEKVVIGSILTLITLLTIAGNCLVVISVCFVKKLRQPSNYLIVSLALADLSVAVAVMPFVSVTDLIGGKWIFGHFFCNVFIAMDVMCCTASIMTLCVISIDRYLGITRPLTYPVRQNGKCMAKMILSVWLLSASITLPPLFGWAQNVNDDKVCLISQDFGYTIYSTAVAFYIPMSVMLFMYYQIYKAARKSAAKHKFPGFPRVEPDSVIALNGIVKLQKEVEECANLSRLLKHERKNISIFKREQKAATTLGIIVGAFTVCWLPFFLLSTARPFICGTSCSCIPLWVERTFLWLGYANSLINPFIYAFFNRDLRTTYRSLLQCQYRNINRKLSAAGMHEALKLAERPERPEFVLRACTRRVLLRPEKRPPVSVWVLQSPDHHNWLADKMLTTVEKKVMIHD
# 5-HT2A, sequence (P28223 whole entry, species assumed): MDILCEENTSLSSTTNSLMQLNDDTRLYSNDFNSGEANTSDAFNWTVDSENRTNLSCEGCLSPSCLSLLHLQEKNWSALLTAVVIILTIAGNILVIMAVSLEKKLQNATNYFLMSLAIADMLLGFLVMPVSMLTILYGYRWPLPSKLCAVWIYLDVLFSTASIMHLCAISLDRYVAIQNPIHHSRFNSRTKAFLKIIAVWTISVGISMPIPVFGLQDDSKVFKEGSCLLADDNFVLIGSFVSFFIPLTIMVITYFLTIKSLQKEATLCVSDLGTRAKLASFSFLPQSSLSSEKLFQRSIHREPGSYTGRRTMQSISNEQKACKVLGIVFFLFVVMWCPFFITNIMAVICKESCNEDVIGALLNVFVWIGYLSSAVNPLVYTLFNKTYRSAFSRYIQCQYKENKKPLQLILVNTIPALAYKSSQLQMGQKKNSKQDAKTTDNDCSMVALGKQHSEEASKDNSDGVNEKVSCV
# DAT, sequence (Q01959 whole entry, species assumed): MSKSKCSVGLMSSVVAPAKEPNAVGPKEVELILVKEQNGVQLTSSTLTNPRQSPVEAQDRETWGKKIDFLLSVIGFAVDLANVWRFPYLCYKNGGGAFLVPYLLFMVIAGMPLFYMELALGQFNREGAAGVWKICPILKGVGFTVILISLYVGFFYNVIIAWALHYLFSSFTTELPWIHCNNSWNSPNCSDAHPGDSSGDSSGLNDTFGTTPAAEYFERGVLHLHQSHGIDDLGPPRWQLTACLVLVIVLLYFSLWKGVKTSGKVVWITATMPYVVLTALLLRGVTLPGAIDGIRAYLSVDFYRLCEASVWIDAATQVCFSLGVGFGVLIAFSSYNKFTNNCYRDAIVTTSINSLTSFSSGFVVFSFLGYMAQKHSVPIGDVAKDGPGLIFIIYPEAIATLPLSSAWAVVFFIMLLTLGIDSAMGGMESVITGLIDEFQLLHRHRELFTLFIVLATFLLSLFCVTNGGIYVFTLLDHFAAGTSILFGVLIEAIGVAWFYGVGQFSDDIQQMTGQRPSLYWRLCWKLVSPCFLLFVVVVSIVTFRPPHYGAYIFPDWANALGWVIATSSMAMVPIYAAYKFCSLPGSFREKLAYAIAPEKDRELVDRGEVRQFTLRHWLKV
# D2, sequence (P14416 whole entry): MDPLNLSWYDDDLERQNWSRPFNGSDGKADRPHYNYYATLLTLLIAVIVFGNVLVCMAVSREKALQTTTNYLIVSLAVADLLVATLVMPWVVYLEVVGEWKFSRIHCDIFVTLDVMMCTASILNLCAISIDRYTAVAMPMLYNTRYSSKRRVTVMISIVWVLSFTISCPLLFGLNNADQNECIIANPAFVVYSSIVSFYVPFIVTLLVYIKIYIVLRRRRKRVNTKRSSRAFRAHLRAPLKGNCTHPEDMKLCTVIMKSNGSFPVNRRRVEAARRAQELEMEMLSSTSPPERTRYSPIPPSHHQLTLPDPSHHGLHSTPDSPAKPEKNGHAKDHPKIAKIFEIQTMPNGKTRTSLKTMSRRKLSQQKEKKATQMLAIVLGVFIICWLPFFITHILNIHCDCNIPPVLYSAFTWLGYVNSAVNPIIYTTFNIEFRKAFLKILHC
# H1, sequence (P35367 whole entry): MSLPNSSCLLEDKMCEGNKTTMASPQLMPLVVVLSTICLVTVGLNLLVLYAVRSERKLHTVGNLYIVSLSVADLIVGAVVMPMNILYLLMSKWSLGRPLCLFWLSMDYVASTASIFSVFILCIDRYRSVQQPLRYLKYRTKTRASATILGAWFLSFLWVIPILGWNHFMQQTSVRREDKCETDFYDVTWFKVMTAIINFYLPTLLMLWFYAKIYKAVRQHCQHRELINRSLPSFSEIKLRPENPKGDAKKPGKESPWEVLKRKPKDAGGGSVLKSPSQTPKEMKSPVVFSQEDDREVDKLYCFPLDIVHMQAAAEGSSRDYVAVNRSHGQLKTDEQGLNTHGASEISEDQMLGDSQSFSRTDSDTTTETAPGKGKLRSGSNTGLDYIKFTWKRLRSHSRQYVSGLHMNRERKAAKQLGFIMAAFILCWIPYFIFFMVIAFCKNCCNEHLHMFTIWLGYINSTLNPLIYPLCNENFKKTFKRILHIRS
# 5-HT6, sequence (P50406 whole entry, species assumed): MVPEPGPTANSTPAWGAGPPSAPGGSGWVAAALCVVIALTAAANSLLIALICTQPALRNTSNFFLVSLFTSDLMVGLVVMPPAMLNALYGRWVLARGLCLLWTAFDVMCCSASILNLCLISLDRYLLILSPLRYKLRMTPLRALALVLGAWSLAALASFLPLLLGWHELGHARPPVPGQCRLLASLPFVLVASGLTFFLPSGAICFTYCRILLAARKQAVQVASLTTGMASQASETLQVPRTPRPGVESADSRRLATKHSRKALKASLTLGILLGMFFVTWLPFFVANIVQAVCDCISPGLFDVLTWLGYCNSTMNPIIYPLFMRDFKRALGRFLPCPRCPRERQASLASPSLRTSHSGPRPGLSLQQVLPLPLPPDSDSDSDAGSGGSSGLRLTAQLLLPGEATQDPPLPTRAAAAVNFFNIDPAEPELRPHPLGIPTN
# D3, sequence (P35462 whole entry): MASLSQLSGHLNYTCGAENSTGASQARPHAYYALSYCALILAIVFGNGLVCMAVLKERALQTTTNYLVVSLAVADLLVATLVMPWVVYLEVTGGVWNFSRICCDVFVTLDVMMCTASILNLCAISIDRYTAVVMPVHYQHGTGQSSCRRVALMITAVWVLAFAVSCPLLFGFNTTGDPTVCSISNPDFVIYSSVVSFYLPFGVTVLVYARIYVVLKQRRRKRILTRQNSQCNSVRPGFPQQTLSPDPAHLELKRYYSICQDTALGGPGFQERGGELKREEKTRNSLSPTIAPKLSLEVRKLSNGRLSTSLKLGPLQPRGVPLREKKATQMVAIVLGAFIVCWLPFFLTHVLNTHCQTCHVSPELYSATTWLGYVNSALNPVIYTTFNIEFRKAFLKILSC
Compound,Ki (sigma 1 receptor; [1]) [nM],Ki (sigma 2 receptor; [2]) [nM],Ki ratio Sig1R/Sig2R (sigma 2 receptor; Table 1),also measured
"CN1CCN(c2ccc3c(c2)C(N(C)C(=O)OCc2ccccc2)CCC3)CC1 (stereo not drawn) [MDW-1-93, Benzyl methyl(7-(4-methylpiperazin-1-yl)-1,2,3,4-tetrahydronaphthalen-1-yl)carbamate]",2940,284,10,
"CN(Cc1ccccc1)C1CCCc2cc(N3CCOCC3)ccc21 (stereo not drawn) [MDW-1-129, N-Benzyl-N-methyl-6-morpholino-1,2,3,4-tetrahydronaphthalen-1-amine]",,,,"Ki (sigma 1 receptor; Table 5, Cheng-Prusoff from best fit IC50, read-out: Ki Sigma 1): 223 nM; Ki (sigma 2 receptor; [3]): 1170 nM; Ki (H1): 118 nM"
"CCN1CCN(c2ccc3c(c2)C(N(C)C(=O)OCc2ccccc2)CCC3)CC1 (stereo not drawn) [MDW-1-161, Benzyl (7-(4-ethylpiperazin-1-yl)-1,2,3,4-tetrahydronaphthalen-1-yl)(methyl)carbamate]",887,35,25,
"CN(C(=O)OCc1ccccc1)C1CCCc2ccc(N3CCN(C4CCC4)CC3)cc21 (stereo not drawn) [MDW-1-162, Benzyl (7-(4-cyclobutylpiperazin-1-yl)-1,2,3,4-tetrahydronaphthalen-1-yl)(methyl)carbamate]",266,12,22,
"COC(=O)CCN1CCN(c2ccc3c(c2)C(N(C)C(=O)OCc2ccccc2)CCC3)CC1 (stereo not drawn) [MDW-1-166, Methyl 3-(4-(8-(((benzyloxy)carbonyl)(methyl)amino)-5,6,7,8-tetrahydronaphthalen-2-yl)piperazin-1-yl)propanoate]",2860,43,67,
"CC(C)N1CCN(c2ccc3c(c2)C(N(C)C(=O)OCc2ccccc2)CCC3)CC1 (stereo not drawn) [MDW-1-167, Benzyl (7-(4-isopropylpiperazin-1-yl)-1,2,3,4-tetrahydronaphthalen-1-yl)(methyl)carbamate]",223,8,27,
"CCOC(=O)CN1CCN(c2ccc3c(c2)C(N(C)C(=O)OCc2ccccc2)CCC3)CC1 (stereo not drawn) [MDW-1-169, Ethyl 2-(4-(8-(((benzyloxy)carbonyl)(methyl)amino)-5,6,7,8-tetrahydronaphthalen-2-yl)piperazin-1-yl)acetate]",> 10000,894,,
"CCOC(=O)CCN1CCN(c2ccc3c(c2)C(N(CC)C(=O)OCc2ccccc2)CCC3)CC1 (stereo not drawn) [MDW-1-190, Ethyl 3-(4-(8-(((benzyloxy)carbonyl)(ethyl)amino)-5,6,7,8-tetrahydronaphthalen-2-yl)piperazin-1-yl)propanoate]",3320,20,166,
"CCCN1CCN(c2ccc3c(c2)C(N(CC)C(=O)OCc2ccccc2)CCC3)CC1 (stereo not drawn) [MDW-1-195, Benzyl ethyl(7-(4-propylpiperazin-1-yl)-1,2,3,4-tetrahydronaphthalen-1-yl)carbamate]",321,5,70,
"CCCN1CCN(c2ccc3c(c2)C(N(CCC)C(=O)OCc2ccccc2)CCC3)CC1 (stereo not drawn) [MDW-1-196, Benzyl propyl(7-(4-propylpiperazin-1-yl)-1,2,3,4-tetrahydronaphthalen-1-yl)carbamate]",199,9,22,Ki (sigma 2 receptor; [3]): 9.4 nM; Ki (5-HT1A): 3.8 µM; Ki (5-HT1B): 1310 nM; Ki (5-HT1D): 1100 nM; Ki (5-HT2A): 1280 nM; Ki (5-HT2B): 2140 nM; Ki (5-HT6): 1960 nM; Ki (5-HT7): 1050 nM; Ki (Alpha2A): 980 nM; Ki (D1): 1920 nM; Ki (D2): 931 nM; Ki (D3): 177 nM; Ki (D4): 2510 nM; Ki (D5): > 10 µM; Ki (DAT): 1910 nM; Ki (H2): 1040 nM
"CCCN1CCN(c2ccc3c(c2)C(NC(=O)OCc2ccccc2)CCC3)CC1 (stereo not drawn) [MDW-1-202, Benzyl (7-(4-propylpiperazin-1-yl)-1,2,3,4-tetrahydronaphthalen-1-yl)carbamate]",174,56,3,
"CCCN1CCN(c2ccc3c(c2)CCCC3N(C)C(=O)OCc2ccccc2)CC1 (stereo not drawn) [MDW-1-204, Benzyl methyl(6-(4-propylpiperazin-1-yl)-1,2,3,4-tetrahydronaphthalen-1-yl)carbamate]",,,,Ki (sigma 1 receptor; [4]): 40 nM; Ki (sigma 2 receptor; [5]): 13 nM; Ki ratio Sig1R/Sig2R (sigma 2 receptor; Table 2): 3
"CCOC(=O)CCN1CCN(c2ccc3c(c2)CCCC3N(C)C(=O)OCc2ccccc2)CC1 (stereo not drawn) [MDW-1-207, Ethyl 3-(4-(5-(((benzyloxy)carbonyl)(methyl)amino)-5,6,7,8-tetrahydronaphthalen-2-yl)piperazin-1-yl)propanoate]",,,,Ki (sigma 1 receptor; [4]): 647 nM; Ki (sigma 2 receptor; [5]): 91 nM; Ki ratio Sig1R/Sig2R (sigma 2 receptor; Table 2): 7
"CCOC(=O)CCN1CCN(c2cccc3c2CCCC3N(C)C(=O)OCc2ccccc2)CC1 (stereo not drawn) [MDW-1-214, Ethyl 3-(4-(5-(((benzyloxy)carbonyl)(methyl)amino)-5,6,7,8-tetrahydronaphthalen-1-yl)piperazin-1-yl)propanoate]",,,,Ki (sigma 1 receptor; [4]): 303 nM; Ki (sigma 2 receptor; [5]): 34 nM; Ki ratio Sig1R/Sig2R (sigma 2 receptor; Table 2): 9
"CCCN1CCN(c2cccc3c2CCCC3N(C)C(=O)OCc2ccccc2)CC1 (stereo not drawn) [MDW-1-215, Benzyl methyl(5-(4-propylpiperazin-1-yl)-1,2,3,4-tetrahydronaphthalen-1-yl)carbamate]",,,,Ki (sigma 1 receptor; [4]): 12 nM; Ki (sigma 2 receptor; [5]): 26 nM; Ki ratio Sig1R/Sig2R (sigma 2 receptor; Table 2): 0.5

# Continued, in another order:
Ki (sigma 1 receptor; [1]) [nM],Ki (sigma 2 receptor; [2]) [nM],Ki ratio Sig1R/Sig2R (sigma 2 receptor; Table 1),Compound,also measured
16,2,8,"CN(C(=O)OCc1ccccc1)C1CCCc2ccc(N3CCN(C4CCCCC4)CC3)cc21 (stereo not drawn) [MDW-1-205, Benzyl (7-(4-cyclohexylpiperazin-1-yl)-1,2,3,4-tetrahydronaphthalen-1-yl)(methyl)carbamate]",
2260,80,28,"CCOC(=O)CCN1CCN(c2ccc3c(c2)C(NC(=O)OCc2ccccc2)CCC3)CC1 (stereo not drawn) [MDW-1-206, Ethyl 3-(4-(8-(((benzyloxy)carbonyl)amino)-5,6,7,8-tetrahydronaphthalen-2-yl)piperazin-1-yl)propanoate]",
33,25,1,"CCCN1CCN(c2ccc3c(c2)C(OC(=O)CCc2ccccc2)CCC3)CC1 (stereo not drawn) [MDW-1-290, 7-(4-Propylpiperazin-1-yl)-1,2,3,4-tetrahydronaphthalen-1-yl 3-phenylpropanoate]",
